What was measured:
PIK3CD (Human) = PIK3CD (Human) (UniProt O00329); test: Assessment of PIK3CD Kinase Activity
PIK3CB (Human) = PIK3CB (Human) (UniProt P42338); test: Assessment of PIK3CB Kinase Activity
PIK3CA (human) = PIK3CA (human) (UniProt P42336); test: Assessment of PIK3CA Kinase Activity
PIK3CG (human) = PIK3CG (human) (UniProt P48736); test: Assessment of PIK3CG Kinase Activity
Sequence of PIK3CG (human) (P48736 whole entry, looked up): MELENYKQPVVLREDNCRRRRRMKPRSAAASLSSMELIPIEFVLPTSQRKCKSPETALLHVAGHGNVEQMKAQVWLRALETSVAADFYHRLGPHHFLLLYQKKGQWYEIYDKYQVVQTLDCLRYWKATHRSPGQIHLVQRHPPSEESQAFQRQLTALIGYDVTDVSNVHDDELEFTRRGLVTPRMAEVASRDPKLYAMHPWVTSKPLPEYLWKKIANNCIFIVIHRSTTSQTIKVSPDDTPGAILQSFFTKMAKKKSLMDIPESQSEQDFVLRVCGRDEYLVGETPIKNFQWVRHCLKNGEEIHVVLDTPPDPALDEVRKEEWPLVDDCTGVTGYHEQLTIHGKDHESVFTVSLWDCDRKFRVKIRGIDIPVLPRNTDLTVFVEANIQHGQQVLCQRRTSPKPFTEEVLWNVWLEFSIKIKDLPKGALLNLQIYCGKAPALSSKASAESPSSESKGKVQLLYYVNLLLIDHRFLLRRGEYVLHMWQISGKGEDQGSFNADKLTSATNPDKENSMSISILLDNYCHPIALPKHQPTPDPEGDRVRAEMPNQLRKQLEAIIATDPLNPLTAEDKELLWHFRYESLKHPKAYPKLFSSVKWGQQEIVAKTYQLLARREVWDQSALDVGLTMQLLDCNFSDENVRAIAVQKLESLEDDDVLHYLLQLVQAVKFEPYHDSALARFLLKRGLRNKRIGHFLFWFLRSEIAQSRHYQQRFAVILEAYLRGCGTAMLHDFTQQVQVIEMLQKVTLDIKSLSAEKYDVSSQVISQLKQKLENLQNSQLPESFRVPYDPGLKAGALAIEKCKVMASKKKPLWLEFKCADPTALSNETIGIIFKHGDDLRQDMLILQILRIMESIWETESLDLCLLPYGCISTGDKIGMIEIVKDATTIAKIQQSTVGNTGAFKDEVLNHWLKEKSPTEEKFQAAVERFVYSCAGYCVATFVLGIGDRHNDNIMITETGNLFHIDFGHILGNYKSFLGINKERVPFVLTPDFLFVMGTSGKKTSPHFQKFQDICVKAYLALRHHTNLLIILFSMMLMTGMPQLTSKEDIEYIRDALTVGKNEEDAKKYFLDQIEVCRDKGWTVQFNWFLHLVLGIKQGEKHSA

Sequence of PIK3CD (Human) (O00329 whole entry, looked up): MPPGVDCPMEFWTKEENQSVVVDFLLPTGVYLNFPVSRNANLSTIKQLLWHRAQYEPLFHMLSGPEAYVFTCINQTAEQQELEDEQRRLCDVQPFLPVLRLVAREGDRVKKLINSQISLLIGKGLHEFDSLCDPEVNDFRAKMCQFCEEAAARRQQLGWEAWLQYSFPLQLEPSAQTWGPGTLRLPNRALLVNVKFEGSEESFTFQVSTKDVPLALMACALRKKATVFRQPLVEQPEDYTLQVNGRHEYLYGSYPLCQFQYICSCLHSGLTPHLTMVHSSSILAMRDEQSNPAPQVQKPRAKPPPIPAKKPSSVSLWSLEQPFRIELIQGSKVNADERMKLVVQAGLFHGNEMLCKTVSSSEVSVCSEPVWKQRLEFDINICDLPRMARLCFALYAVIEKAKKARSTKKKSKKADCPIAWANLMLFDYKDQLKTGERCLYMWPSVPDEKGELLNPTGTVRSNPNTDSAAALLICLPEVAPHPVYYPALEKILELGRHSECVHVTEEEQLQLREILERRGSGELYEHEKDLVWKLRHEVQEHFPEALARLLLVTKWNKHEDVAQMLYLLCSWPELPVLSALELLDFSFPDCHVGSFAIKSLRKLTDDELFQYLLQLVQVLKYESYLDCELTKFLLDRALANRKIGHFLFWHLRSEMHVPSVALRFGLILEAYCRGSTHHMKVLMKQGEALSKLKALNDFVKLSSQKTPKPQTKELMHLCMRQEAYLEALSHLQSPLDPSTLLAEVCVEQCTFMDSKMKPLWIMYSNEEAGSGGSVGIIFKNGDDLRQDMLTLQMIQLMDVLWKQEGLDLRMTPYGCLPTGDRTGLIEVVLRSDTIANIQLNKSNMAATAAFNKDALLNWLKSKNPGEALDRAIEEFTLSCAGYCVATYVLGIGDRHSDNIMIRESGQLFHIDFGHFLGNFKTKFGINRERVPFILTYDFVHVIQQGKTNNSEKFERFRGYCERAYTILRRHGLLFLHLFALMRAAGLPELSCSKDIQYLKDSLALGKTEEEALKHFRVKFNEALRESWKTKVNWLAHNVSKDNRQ
Sequence of PIK3CB (Human) (P42338 whole entry, looked up): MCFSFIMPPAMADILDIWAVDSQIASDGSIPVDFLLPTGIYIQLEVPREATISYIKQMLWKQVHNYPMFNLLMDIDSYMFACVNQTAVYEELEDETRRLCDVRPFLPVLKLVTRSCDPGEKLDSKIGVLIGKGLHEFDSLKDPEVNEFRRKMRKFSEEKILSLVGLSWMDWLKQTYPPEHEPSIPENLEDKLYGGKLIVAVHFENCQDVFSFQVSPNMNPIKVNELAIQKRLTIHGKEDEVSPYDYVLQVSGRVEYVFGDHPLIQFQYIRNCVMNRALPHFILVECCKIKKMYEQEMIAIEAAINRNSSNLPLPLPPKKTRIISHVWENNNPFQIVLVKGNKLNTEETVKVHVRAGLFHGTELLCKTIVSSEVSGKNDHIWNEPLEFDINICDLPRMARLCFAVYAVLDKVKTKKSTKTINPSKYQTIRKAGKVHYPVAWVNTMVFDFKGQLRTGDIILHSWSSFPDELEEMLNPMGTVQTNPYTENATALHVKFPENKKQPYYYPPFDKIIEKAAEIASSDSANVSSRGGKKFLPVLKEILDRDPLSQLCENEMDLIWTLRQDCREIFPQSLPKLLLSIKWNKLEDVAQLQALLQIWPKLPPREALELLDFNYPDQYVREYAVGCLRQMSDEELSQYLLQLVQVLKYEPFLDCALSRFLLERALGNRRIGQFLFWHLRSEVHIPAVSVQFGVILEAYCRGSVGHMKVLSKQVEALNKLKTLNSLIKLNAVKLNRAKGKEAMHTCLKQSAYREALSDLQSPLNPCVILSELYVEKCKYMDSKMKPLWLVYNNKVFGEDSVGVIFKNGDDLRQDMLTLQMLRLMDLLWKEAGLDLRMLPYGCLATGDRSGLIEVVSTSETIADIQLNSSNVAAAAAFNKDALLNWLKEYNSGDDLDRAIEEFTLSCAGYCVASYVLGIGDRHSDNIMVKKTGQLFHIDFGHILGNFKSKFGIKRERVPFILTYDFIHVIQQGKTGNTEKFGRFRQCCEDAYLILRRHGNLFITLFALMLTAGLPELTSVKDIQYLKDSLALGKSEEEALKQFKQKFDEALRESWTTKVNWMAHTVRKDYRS
Sequence of PIK3CA (human) (P42336 whole entry, looked up): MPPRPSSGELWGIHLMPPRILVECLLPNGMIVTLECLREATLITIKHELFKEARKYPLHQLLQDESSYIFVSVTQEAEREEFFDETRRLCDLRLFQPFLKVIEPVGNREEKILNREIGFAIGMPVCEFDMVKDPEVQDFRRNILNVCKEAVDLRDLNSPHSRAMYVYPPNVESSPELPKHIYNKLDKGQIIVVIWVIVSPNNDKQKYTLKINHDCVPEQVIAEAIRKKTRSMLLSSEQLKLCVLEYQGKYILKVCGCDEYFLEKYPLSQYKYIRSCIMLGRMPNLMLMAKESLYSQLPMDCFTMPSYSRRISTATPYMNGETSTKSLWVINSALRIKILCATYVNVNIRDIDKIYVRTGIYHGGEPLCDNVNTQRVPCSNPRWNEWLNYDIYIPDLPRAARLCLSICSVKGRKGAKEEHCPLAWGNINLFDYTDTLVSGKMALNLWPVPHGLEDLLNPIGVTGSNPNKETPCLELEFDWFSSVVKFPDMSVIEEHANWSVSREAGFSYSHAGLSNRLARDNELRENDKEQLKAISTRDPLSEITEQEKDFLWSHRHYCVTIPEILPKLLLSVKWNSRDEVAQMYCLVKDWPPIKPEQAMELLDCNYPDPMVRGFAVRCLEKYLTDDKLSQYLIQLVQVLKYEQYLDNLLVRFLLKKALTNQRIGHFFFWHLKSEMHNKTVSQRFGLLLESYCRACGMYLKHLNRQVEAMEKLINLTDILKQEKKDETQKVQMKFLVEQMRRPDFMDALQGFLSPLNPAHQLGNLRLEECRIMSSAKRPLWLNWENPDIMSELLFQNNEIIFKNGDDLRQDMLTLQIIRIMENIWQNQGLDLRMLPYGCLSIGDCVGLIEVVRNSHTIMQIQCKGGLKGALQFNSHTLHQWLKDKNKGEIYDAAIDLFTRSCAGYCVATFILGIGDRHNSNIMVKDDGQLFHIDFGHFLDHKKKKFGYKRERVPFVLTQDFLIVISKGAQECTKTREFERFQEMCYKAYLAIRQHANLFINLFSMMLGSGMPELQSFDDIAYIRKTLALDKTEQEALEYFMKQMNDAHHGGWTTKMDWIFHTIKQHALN

| Compound | IC50 (PIK3CD (Human)) | IC50 (PIK3CB (Human)) | IC50 (PIK3CA (human)) | IC50 (PIK3CG (human)) |
| --- | --- | --- | --- | --- |
| C[C@H](Nc1ncnn2cncc12)c1cc2cccc(C(F)(F)F)c2c(=O)n1-c1ccccc1 |  | > 10000 nM | > 10000 nM | > 10000 nM |
| C[C@H](Nc1nc(Cl)nc2cccnc12)c1cc2cccc(C(F)(F)F)c2c(=O)n1-c1ccccc1 |  | > 10000 nM | > 10000 nM | 100 to 1000 nM |
| C[C@H](Nc1nc(N)ncc1C(F)(F)F)c1cc2cccc(C(F)(F)F)c2c(=O)n1-c1cccc(F)c1 | < 100 nM |  | > 10000 nM | < 100 nM |
| C[C@H](Nc1c(C#N)cnc2cccnc12)c1cc2cccc(-c3cnn(C)c3)c2c(=O)n1-c1ccccc1 | > 10000 nM | > 10000 nM | > 10000 nM |  |
| Cc1ccnc2cc(C(C)Nc3ncnc4cccnc34)[nH]c(=O)c12 (stereo not drawn) |  | > 10000 nM | > 10000 nM | > 10000 nM |
| COc1ccc(CNc2nc(N[C@@H](C)c3cc4cccc(-c5cnc(OC)nc5)c4c(=O)n3-c3ccccc3)c3ncccc3n2)cc1 | 100 to 1000 nM |  | > 10000 nM | 100 to 1000 nM |
| Cc1cn2nccc(N[C@@H](C)c3cc4cccc(Cl)c4c(=O)n3-c3ccccc3)c2n1 |  | > 10000 nM | > 10000 nM |  |
| Cc1cn2nccc(N[C@@H](C)c3cc4cccc(C(F)(F)F)c4c(=O)n3-c3ccccc3)c2n1 | > 10000 nM | > 10000 nM | > 10000 nM |  |
| C[C@H](Nc1nc(N)ncc1C(F)(F)F)c1cc2cccc(C(F)(F)F)c2c(=O)n1-c1ccccc1 | < 100 nM |  | > 10000 nM | < 100 nM |
| Cc1ccnc2cc(C(C)Nc3ncnc4cccnc34)n(-c3ccccc3)c(=O)c12 (stereo not drawn) | < 100 nM |  | > 10000 nM | 100 to 1000 nM |
| C[C@H](Nc1ncnc(N)n1)c1cc2cccc(Cl)c2c(=O)n1-c1cccc(F)c1 | 100 to 1000 nM | > 10000 nM | > 10000 nM |  |
| Cc1nc2c(N[C@@H](C)c3cc4cccc(C(F)(F)F)c4c(=O)n3-c3ccccc3)ncnc2s1 | > 10000 nM | > 10000 nM | > 10000 nM |  |
| C[C@H](Nc1cc(Cl)nn2ccnc12)c1cc2cccc(C(F)(F)F)c2c(=O)n1-c1cccc(F)c1 | 100 to 1000 nM | > 10000 nM | > 10000 nM |  |
| C[C@H](Nc1c(C#N)cnc2cccnc12)c1cc2cccc(Cl)c2c(=O)n1-c1cccc(F)c1 | > 10000 nM | > 10000 nM | > 10000 nM |  |
| C[C@H](Nc1nc(Cl)nc2scnc12)c1cc2cccc(C(F)(F)F)c2c(=O)n1-c1ccccc1 | < 100 nM |  | > 10000 nM | < 100 nM |
| Cc1cn2nccc(N[C@@H](C)c3cc4cccc(Cl)c4c(=O)n3-c3cccc(F)c3)c2n1 |  | > 10000 nM | > 10000 nM |  |
| Cc1nsc2cc(C(C)Nc3ncnc4cccnc34)n(-c3ccccc3)c(=O)c12 (stereo not drawn) | 100 to 1000 nM | > 10000 nM | > 10000 nM |  |
| C[C@H](Nc1ncnc2cccnc12)c1cc2scc(C(F)(F)F)c2c(=O)n1-c1ccccc1 | < 100 nM | > 10000 nM | > 10000 nM |  |
| C[C@H](Nc1c(C#N)cnc2cccnc12)c1cc2cccc(Cl)c2c(=O)n1-c1ccccc1 | > 10000 nM | > 10000 nM | > 10000 nM |  |
| C[C@H](Nc1nc(N)nc2nccnc12)c1cc2cccc(Cl)c2c(=O)n1-c1ccccc1 | 100 to 1000 nM |  | > 10000 nM | < 100 nM |
| C[C@H](Nc1c(C#N)cnc2cccnc12)c1cc2cccc(C(F)(F)F)c2c(=O)n1-c1ccccc1 | > 10000 nM | > 10000 nM | > 10000 nM |  |

The next lines start with the values.

| IC50 (PIK3CD (Human)) | IC50 (PIK3CB (Human)) | IC50 (PIK3CA (human)) | IC50 (PIK3CG (human)) | Compound |
| --- | --- | --- | --- | --- |
| > 10000 nM | > 10000 nM | > 10000 nM |  | COc1nc(N[C@@H](C)c2cc3cccc(C(F)(F)F)c3c(=O)n2-c2cccc(F)c2)c2ncccc2n1 |
|  | > 10000 nM | > 10000 nM |  | C[C@H](Nc1ncnc2cccnc12)c1cc2cccc(-c3cnn(C)c3)c2c(=O)n1C |
|  | > 10000 nM | > 10000 nM |  | C[C@H](Nc1cc(O)nc2cccnc12)c1cc2cccc(Cl)c2c(=O)n1-c1ccccc1 |
|  | > 10000 nM | > 10000 nM | > 10000 nM | C[C@H](NCc1cnc2cccnn12)c1cc2cccc(Cl)c2c(=O)n1-c1ccccc1 |
|  | > 10000 nM | > 10000 nM |  | C[C@H](Nc1nc(Cl)nc2nccnc12)c1cc2cccc(Cl)c2c(=O)n1-c1ccccc1 |
|  | > 10000 nM | > 10000 nM | > 10000 nM | C[C@H](Nc1ncc2[nH]cnc2n1)c1cc2cccc(Cl)c2c(=O)n1-c1ccccc1 |
|  | > 10000 nM | > 10000 nM |  | C[C@H](Nc1cc(Cl)nn2ccnc12)c1cc2cccc(-c3cnn(C)c3)c2c(=O)n1C1CC1 |
|  | 100 to 1000 nM | 100 to 1000 nM | < 100 nM | C[C@H](Nc1ncnc2cccnc12)c1cc2c(F)ccc(Cl)c2c(=O)n1-c1ccccc1 |
| < 100 nM |  | > 10000 nM | < 100 nM | C[C@H](Nc1cc(N)nc2ccnn12)c1cc2cccc(Cl)c2c(=O)n1-c1ccccc1 |
|  | > 10000 nM | > 10000 nM |  | Cc1cn2nccc(N[C@@H](C)c3cc4cccc(-c5cnn(C)c5)c4c(=O)n3-c3ccccc3)c2n1 |
| < 100 nM |  | 100 to 1000 nM | < 100 nM | Cc1cc(-c2cccc3cc([C@H](C)Nc4nc(N)nc5cccnc45)n(-c4ccccc4)c(=O)c23)ccn1 |
| 100 to 1000 nM | 100 to 1000 nM | 100 to 1000 nM |  | C[C@H](Nc1ncnc2[nH]cnc12)c1cc2scc(C(F)(F)F)c2c(=O)n1-c1ccccc1 |
| < 100 nM |  | > 10000 nM | < 100 nM | C[C@H](Nc1ncnc2ccnn12)c1cc2cccc(C(F)(F)F)c2c(=O)n1-c1ccccc1 |
|  | > 10000 nM | > 10000 nM | > 10000 nM | C[C@H](Nc1cc(Cl)ncc1C#N)c1cc2cccc(Cl)c2c(=O)n1-c1ccccc1 |
| < 100 nM |  | > 10000 nM | < 100 nM | C[C@H](Nc1ncnc2[nH]nc(C#N)c12)c1cc2cccc(Cl)c2c(=O)n1-c1ccccc1 |
| < 100 nM |  | 100 to 1000 nM | < 100 nM | C[C@H](Nc1nc(N)nc2cccnc12)c1cc2cccc(-c3cnn(C)c3)c2c(=O)n1C1CC1 |
| < 100 nM |  | 100 to 1000 nM | < 100 nM | C[C@H](Nc1nc(N)nc2cccnc12)c1cc2cccc(-c3cnc4ccccc4c3)c2c(=O)n1-c1ccccc1 |
| < 100 nM |  | 100 to 1000 nM | < 100 nM | Cc1cccc2cc([C@H](C)Nc3nc(N)nc4cccnc34)n(-c3cccc(F)c3)c(=O)c12 |
| < 100 nM |  | 100 to 1000 nM | < 100 nM | Cc1cc(-c2cccc3nc([C@H](C)Nc4nc(N)nc5cccnc45)n(-c4ccccc4)c(=O)c23)ccn1 |
| < 100 nM |  | 100 to 1000 nM | < 100 nM | Cc1cc(-c2cccc3cc([C@H](C)Nc4ncnc5cccnc45)n(-c4ccccc4)c(=O)c23)ccn1 |
| < 100 nM |  | 100 to 1000 nM | < 100 nM | C[C@H](Nc1ncnc2cccnc12)c1cc2cccc(-c3cnc(N)nc3)c2c(=O)n1-c1ccccc1 |
| < 100 nM |  | 100 to 1000 nM | < 100 nM | COc1cncc(-c2cccc3cc([C@H](C)Nc4nc(N)nc5cccnc45)n(-c4ccccc4)c(=O)c23)c1 |
| < 100 nM |  | 100 to 1000 nM | < 100 nM | Cc1ncc(-c2cccc3cc([C@H](C)Nc4nc(N)nc5cccnc45)n(-c4ccccc4)c(=O)c23)s1 |
| < 100 nM |  | 100 to 1000 nM | < 100 nM | Cc1cncc(-c2cccc3cc([C@H](C)Nc4nc(N)nc5cccnc45)n(-c4ccccc4)c(=O)c23)c1 |
